≈ marks a conversion by molar mass, not a printed value. Read-outs that look alike come from different tables or passages of the source.
Legend:
[1] = Solubility of prodrug compounds of Rasagiline in phosphate buffer pH 7.4; type: physicochemical
Text: A melting point and solubility (phosphate buffer with pH of 7.4) of synthesized prodrug compounds of Rasagiline were detected, and the results are shown in table 1: […]

[2] = Pharmacokinetics experiment: Rasagiline in blood plasma after intramuscular injection of prodrug suspensions into beagles; type: in vivo; conditions: beagle, intramuscular injectable suspension
Experimental: One common male beagle was used for each group, and they were forbidden to eat for 12 hours before administering drugs, and drank water freely meanwhile. Injectable suspensions of Example 13, Example 15, Example 14, Example 20, Example 8 were intramuscularly injected in a dosage of 0.47 mg/kg Rasagiline (1.72 mg/kg, 1.56 mg/kg, 1.64 mg/kg, 1.80 mg/kg, 1.16 mg/kg of prodrug respectively after conversion).
Treatment of blood plasma sample: The blood plasma sample was placed in an ice bath; 30 μL of methanol and 20 μL of interior label (2 μg/mL apigenin dissolved in 50% methanol) were added into 200 μL of the blood plasma sample and mixed through vortex, and then 4 mL of ethyl acetate was added and mixed through vortex. After being centrifuged at 9000 g for 2 minutes, an organic phase was separated and dried in vacuum, and then 150 μL of methanol was added for re-dissolution. 30 μL of a prepared sample was taken for analyzing.
Data analysis: The sample was detected by LC-MS/MS, and analyzed by a DAS 2.0 software to calculate pharmacokinetic parameters according to blood drug concentration, providing parameters such as AUC (0-t), AUC(0-∞), MRT(0-t), MRT(0-∞), Cmax, Tmax, and t1/2, etc.

[3] = target: Monoamine oxidase (MAO-B) (Homo sapiens, UniProt P27338); conditions: monoamine oxidase inhibitor; stronger than Selegiline; cited from earlier work
Chain of Monoamine oxidase (MAO-B) (P27338 whole entry, species assumed): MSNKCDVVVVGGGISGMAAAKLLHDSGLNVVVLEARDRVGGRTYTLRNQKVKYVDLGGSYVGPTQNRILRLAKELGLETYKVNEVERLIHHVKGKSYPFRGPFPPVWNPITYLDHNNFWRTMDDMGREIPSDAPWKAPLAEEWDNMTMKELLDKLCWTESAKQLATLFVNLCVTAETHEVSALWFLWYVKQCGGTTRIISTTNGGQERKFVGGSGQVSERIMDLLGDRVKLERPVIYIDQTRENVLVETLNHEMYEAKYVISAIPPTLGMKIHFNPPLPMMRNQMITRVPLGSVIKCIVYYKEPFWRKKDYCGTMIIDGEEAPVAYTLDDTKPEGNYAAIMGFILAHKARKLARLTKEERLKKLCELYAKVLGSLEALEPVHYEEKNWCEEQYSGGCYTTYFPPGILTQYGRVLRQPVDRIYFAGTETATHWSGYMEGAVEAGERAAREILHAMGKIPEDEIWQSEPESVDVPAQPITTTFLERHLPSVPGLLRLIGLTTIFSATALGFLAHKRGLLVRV

[4] = pH 7.4, aqueous buffer, phosphate buffer with pH of 7.4, read-out: SOLUBILITY

Compound | solubility [1, 4] [µg/mL] | melting point [°C] | other results
C#CCN(C(=O)OCOC(=O)CCCCCCCCCCCCCCC)[C@@H]1CCc2ccccc21 [Example 1, methyl ((Rasagiline-N-formyl)oxy)-palmitate] | < 5 | < 25 | –
C#CCN(C(=O)OCOC(=O)Cc1cccc2ccccc12)[C@@H]1CCc2ccccc21 [Example 2, methyl ((Rasagiline-N-formyl)oxy)-naphthalene acetate] | < 5 | 66 to 70 | –
C#CCN(C(=O)OCOC(=O)CCCCCCCCCCCCCCCCC)[C@@H]1CCc2ccccc21 [Example 3, methyl ((Rasagiline-N-formyl)oxy)-stearate] | < 5 | < 25 | –
C#CCN(C(=O)OCOC(=O)C(C)(C)C)[C@@H]1CCc2ccccc21 [Example 4, methyl ((Rasagiline-N-formyl)oxy)-pivalate] | < 5 | < 25 | –
C#CCN(C(=O)OCOC(=O)CCCCCCCCCCCCCCCCCCC)[C@@H]1CCc2ccccc21 [Example 5, methyl ((Rasagiline-N-formyl)oxy)-icosanoate] | < 5 | < 25 | –
C#CCN(C(=O)OCOC(=O)CC[C@@H](C)C1CCC2C3C[C@H](O)[C@@H]4C[C@H](O)CC[C@]4(C)C3CC[C@@]21C)[C@@H]1CCc2ccccc21 (some centres unmarked) [Example 6, methyl ((Rasagiline-N-formyl)oxy)-hyodeoxycholate] | – | < 50 | solubility ([1]; pH 7.4, aqueous buffer): < 5 µg/mL
C#CCN(C(=O)OCOC(=O)CCCC[C@@H]1SC[C@@H]2NC(=O)N[C@@H]21)[C@@H]1CCc2ccccc21 [Example 7, methyl ((Rasagiline-N-formyl)oxy)-biotin methyl ester] | 31.7 (≈ 67.2 µM) | – | –
C#CCN(C(=O)OCOC(=O)/C=C/c1ccc(O)c(OC)c1)[C@@H]1CCc2ccccc21 [Example 8, methyl ((Rasagiline-N-formyl)oxy)-ferulate] | < 5 | 130.4 to 133.8 | –
C#CCN(C(=O)OCOC(=O)CC[C@@H](C)C1CCC2C3C(CC[C@@]21C)[C@@]1(C)CC[C@@H](O)C[C@H]1C[C@H]3O)[C@@H]1CCc2ccccc21 (some centres unmarked) [Example 9, methyl ((Rasagiline-N-formyl)oxy)-chenodeoxycholate] | – | < 50 | solubility ([1]; pH 7.4, aqueous buffer): < 5 µg/mL
C#CCN(C(=O)OCOC(=O)CC[C@@H](C)C1CCC2C3C(CC[C@@]21C)[C@@]1(C)CC[C@@H](O)C[C@H]1C[C@@H]3O)[C@@H]1CCc2ccccc21 (some centres unmarked) [Example 10, methyl ((Rasagiline-N-formyl)oxy)-ursodesoxycholate] | – | < 50 | solubility ([1]; pH 7.4, aqueous buffer): < 5 µg/mL
C#CCN(C(=O)OCOC(=O)CC[C@@H](C)C1CCC2C3CC[C@@H]4C[C@H](O)CC[C@]4(C)C3C[C@H](O)[C@@]21C)[C@@H]1CCc2ccccc21 (some centres unmarked) [Example 11, methyl ((Rasagiline-N-formyl)oxy)-deoxycholate] | – | < 50 | solubility ([1]; pH 7.4, aqueous buffer): < 5 µg/mL
C#CCN(C(=O)OCOC(=O)CCCCCNC(=O)CCCCCCCCCCCCCCCCCCC)[C@@H]1CCc2ccccc21 [Example 12, methyl ((Rasagiline-N-formyl)oxy)-icosanamidohexanoate] | < 5 | 77.2 to 80.8 | –
C#CCN(C(=O)OCOC(=O)CCCNC(=O)CCCCCCCCCCCCCCCCCCC)[C@@H]1CCc2ccccc21 [Example 13, methyl ((Rasagiline-N-formyl)oxy)-icosanamidobutanoate] | < 5 | 80 to 82 | release of the prodrug and conversion into Rasagiline (in words) [2]: steadier
C#CCN(C(=O)OCOC(=O)CCCNC(=O)CCCCCCCCCCCCCCCCC)[C@@H]1CCc2ccccc21 [Example 14, methyl ((Rasagiline-N-formyl)oxy)-stearamidobutanoate] | < 5 | 76 to 78 | –
C#CCN(C(=O)OCOC(=O)CCCNC(=O)CCCCCCCCCCCCCCC)[C@@H]1CCc2ccccc21 [Example 15, methyl ((Rasagiline-N-formyl)oxy)-palmitamidobutanoate] | < 5 | 73 to 75 | –
C#CCN(C(=O)OCOC(=O)CCCNC(=O)CCCCCCCCCCC)[C@@H]1CCc2ccccc21 [Example 16, methyl ((Rasagiline-N-formyl)oxy)4-dodecanamidobutanoate] | < 5 | 56.1 to 59.4 | –
C#CCN(C(=O)OCOC(=O)CCCNC(=O)CCCCCCCCCCCCC)[C@@H]1CCc2ccccc21 [Example 17, methyl ((Rasagiline-N-formyl)oxy)4-tetradecanamidobutanorate] | < 5 | 66.3 to 71.8 | –
C#CCN(C(=O)OCOC(=O)CCCNC(=O)CCCCCCCCCCCCCCCCCCCCC)[C@@H]1CCc2ccccc21 [Example 20, methyl ((Rasagiline-N-formyl)oxy)4-docosanamidobutanoate] | < 5 | 55.4 to 56.2 | release of the prodrug and conversion into Rasagiline (in words) [2]: steadier
C#CCN(C(=O)OCOC(=O)CCCCNC(=O)CCCCCCCCCCCCCCC)[C@@H]1CCc2ccccc21 [Example 21, methyl ((Rasagiline-N-formyl)oxy)5-palmitamidopentanoate] | < 5 | 58.3 to 58.9 | –
C#CCN(C(=O)OCOC(=O)CCCCNC(=O)CCCCCCCCCCCCCCCCC)[C@@H]1CCc2ccccc21 [Example 22, methyl ((Rasagiline-N-formyl)oxy)5-stearamidopentanoate] | < 5 | 75.3 to 77.1 | –
C#CCN(C(=O)OCOC(=O)CCC(=O)NCCCCCCCCCCCCCCCCCC)[C@@H]1CCc2ccccc21 [Example 23, methyl ((Rasagiline-N-formyl)oxy)4-octadecylamidosuccinate] | < 5 | – | –
C#CCN[C@@H]1CCc2ccccc21 [Rasagiline] | – | – | inhibiting effect compared to Selegiline [3]: 5-10 times
methyl ((Rasagiline-N-formyl)oxy)4-stearamidohexanoate [Example 18] | – | – | solubility ([1]; pH 7.4): <5 µg/mL
